No end group written: not given here.
What was measured:
[1] = test system: MED1, BRD4, and POL2 condensates in HCT116 colon cancer cell lines; assay: Small molecule effects on transcriptional condensates in GFP-tagged HCT116 cells; format: cell-based, human; conditions: for effect of antimetabolites on MED1, BRD4 or POL2 condensates: 5 uM; for effect on transcriptional condensates: MED1-GFP, BRD4-GFP, POL2-GFP HCT116
Text: HCT116 colon cancer cell lines endogenously tagged with MED1-GFP, BRD4-GFP, POL2-GFP, or HP1a-GFP (Mock), all forming condensates in the nucleus.

MED1 = biological target: T1, MED1 (Homo sapiens, UniProt Q15648); assay: In vitro droplet assay, small molecule partitioning into MED1 condensates; format: binding; conditions: confocal fluorescence; Example 2: 125 mM NaCl, 10% PEG, 10 μM protein; fluorescent or fluorescently labeled drug
T1 construct: MED1—amino acids 600-1581; 6xHis (N); made in house; host or cells: LOBSTR cells (E. coli)
T1 sequence (Q15648 600-1581): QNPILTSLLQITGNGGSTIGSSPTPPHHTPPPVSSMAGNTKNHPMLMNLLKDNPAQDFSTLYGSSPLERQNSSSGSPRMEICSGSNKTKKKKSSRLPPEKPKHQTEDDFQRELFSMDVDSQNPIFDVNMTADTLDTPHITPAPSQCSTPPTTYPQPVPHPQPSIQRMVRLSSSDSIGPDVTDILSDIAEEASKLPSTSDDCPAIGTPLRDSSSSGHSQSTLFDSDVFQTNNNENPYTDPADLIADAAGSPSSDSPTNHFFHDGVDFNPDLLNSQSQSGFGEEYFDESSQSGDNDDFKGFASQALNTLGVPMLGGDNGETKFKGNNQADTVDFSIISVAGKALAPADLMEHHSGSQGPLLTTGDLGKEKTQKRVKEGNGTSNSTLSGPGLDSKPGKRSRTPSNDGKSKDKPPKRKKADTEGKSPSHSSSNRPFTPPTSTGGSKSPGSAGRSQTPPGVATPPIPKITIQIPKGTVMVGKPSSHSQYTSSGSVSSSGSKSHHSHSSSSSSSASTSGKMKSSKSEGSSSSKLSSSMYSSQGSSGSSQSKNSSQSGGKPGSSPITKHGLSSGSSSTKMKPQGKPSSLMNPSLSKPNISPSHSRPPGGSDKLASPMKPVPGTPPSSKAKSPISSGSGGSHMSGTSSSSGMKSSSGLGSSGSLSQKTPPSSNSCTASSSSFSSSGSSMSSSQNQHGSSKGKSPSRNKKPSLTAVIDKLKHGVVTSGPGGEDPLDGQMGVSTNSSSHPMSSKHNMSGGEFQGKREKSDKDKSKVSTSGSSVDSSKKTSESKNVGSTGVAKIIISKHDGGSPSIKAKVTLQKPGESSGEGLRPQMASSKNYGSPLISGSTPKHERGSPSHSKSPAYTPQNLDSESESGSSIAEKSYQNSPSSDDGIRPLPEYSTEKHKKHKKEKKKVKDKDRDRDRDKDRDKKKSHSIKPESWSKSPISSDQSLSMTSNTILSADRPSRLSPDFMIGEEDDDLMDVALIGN
Experimental: (§1) Recombinant BFP, GFP, or mCherry fusion proteins were concentrated and desalted to an appropriate protein concentration and 125 mM NaCl using Amicon Ultra centrifugal filters (30K MWCO, Millipore). Recombinant protein was added too. […] The protein solution was immediately loaded onto glass bottom 384 well plate (Cellvis P384-1.5H-N) and imaged with an Andor confocal microscope with a 150× objective. Unless indicated, images presented are of droplets settled on the glass coverslip.
Drug and small molecule concentrations used in the droplet experiments are as follows:
To analyze in vitro droplet experiments, custom Python scripts using the scikit-image package were written to identify droplets and characterize their size, shape and intensity. Droplets were segmented from average images of captured channels on various criteria: (1) an intensity threshold that was three s.d. above the mean of the image; (2) size thresholds (20 pixel minimum droplet size); and (3) a minimum circularity (circularity=4π·areaperimeter2) (circularity=4π·areaperimeter2) of 0.8 (1 being a perfect circle). After segmentation, mean intensity for each droplet was calculated while excluding pixels near the phase interface, and background-corrected by subtracting intensity of dark images of droplet formation buffer only. Droplets identified in the channel of the fluorescent protein from ten independent fields of view were quantified for each experiment. The maximum intensity of signal within the droplets was calculated for each channel, the maximum intensity in the drug channel was termed “maximum drug intensity”. To obtain the intensity of drug or dye alone in the diffuse state (termed “diffuse drug intensity”), the compound was added to droplet formation buffer at same concentration used in the droplet assay. This was then imaged on a confocal fluorescent microscope. The resulting image was processed in FIJI to obtain the fluorescent intensity of the field. To obtain the fluorescent intensity of protein droplets that bleed through in the drug channel (termed “background intensity”) protein droplets were imaged in the fluorescent channel in which the drug fluoresces and processed as above to obtain the average maximum intensity within the droplet across 10 images. The enrichment ratio was obtained by the following formula [(maximum drug intensity)−(background intensity)]/(diffuse drug intensity). The box plots show the distributions of all droplets. Each dot represents an individual droplet.

[2] = Droplet formation assay of small molecule alone without any protein; format: physicochemical; conditions: without any protein added
Experimental: as §1, with “Recombinant protein was added too.” left out

MED1 droplets = biological target: T2, MED1 droplets (Homo sapiens, UniProt Q15648); assay: In vitro droplet drug chase out experiment; format: binding; conditions: 5 μM cisplatin-TR, 10 μM MED1, unlabeled compound 10, 100 or 500 μM
T2 construct: MED1—amino acids 600-1581; 6xHis (N); made in house; host or cells: LOBSTR cells (E. coli)
T2 sequence (Q15648 600-1581): as above
Experimental: For chase-out experiments 5 μM labeled cisplatin-TR was added to a MED1 droplets reaction (10 μM MED1, 50 mM Tris-HCl pH 7.5, 10% glycerol, 1 mM DTT, 10% PEG) in order to form MED1 droplets concentrated with Cisplatin-TR. Unlabeled transplatin or unlabeled cisplatin (vehicle, 10 μM, 100 μM, or 500 μM) were added to the droplet mixture and the amount of labeled cisplatin-TR remaining in the droplet is measured after chase out. 100 μM fluorescent FLTX1 was added to a MED1 droplets reaction (10 μM MED1, 50 mM Tris-HCl pH 7.5, 10% glycerol, 1 mM DTT, 10% PEG) in order to form MED1 droplets concentrated with FLTX1.

ER/MED1 droplets = biological target: T3, ER/MED1 droplets (Homo sapiens, UniProt P03372); assay: Peptides added to ER/MED1 droplets; format: biochemical; conditions: for effect of peptide on ER partitioning / ER/MED1 droplet formation: in the presence of estrogen
T3 sequence (P03372 1-595): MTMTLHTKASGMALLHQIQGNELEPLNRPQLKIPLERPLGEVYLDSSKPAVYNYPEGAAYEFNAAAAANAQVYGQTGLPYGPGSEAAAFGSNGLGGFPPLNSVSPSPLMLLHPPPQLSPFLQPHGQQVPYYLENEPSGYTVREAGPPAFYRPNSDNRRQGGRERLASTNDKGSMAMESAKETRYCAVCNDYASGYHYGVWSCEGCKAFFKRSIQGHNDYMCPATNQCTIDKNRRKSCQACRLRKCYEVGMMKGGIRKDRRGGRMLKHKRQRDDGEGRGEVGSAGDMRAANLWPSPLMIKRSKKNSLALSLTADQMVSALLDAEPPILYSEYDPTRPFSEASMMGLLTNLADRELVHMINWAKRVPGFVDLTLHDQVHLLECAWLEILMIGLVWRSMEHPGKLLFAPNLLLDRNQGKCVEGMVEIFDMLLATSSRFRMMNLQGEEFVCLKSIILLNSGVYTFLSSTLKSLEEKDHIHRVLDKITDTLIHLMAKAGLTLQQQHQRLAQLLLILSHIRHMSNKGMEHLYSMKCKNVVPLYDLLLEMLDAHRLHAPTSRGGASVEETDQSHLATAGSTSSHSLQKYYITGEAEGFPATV
Experimental: FIG. 24 illustrates ER/MED1 droplets contacted with a fluorescent peptide (left side).
A number of condensate components are known to form in vitro condensates. In general, one or more condensate components are added to solutions (e.g. aqueous solution) at varying concentrations in the presence of a salt (e.g., NaCl) and, optionally, a crowding agent (e.g., polyethylene glycol, Ficoll). See, e.g., Boija et al, Cell, vol. 175, no. 7, pp. 1842-1855 (2018); Sabari et al., Science, vol. 361, pp. 361-371 (2018); Bergeron-Sandoval et al., Cell, vol. 165, no. 5, pp. 1067-1079 (2016). May 19; 165(5):1067-1079, the relevant methods of which are specifically incorporated herein. In some embodiments, in vitro MED1 containing condensates are formed by adding about 10 μM of MED1 to a solution containing […] of NaCl and 10% PEG (e.g., PEG-8000).

[3] = biological target: T4, MED1 intrinsically disordered region, amino acids 600-1581, recombinant fluorescent fusion protein (human, UniProt Q15648 600-1581); assay: in vitro droplet assay, peptide added to ER/MED1 droplets
T4 construct: Scaffold protein of the in vitro droplets; also called MED1-IDR; MED1 IDR; not shown: N-terminal 6xHIS plus fluorescent protein (BFP, mEGFP or mCherry)
T4 sequence (Q15648 600-1581 limits assumed): as the sequence (Q15648 600-1581) above

| Molecule | effect on transcriptional condensates [1] | partitioning / incorporation into MED1 droplets (MED1) | other results |
| --- | --- | --- | --- |
| Nc1ncn([C@@H]2O[C@H](CO)[C@@H](O)[C@H]2O)c(=O)n1 [5-Aza] |  |  | effect of antimetabolites on MED1, BRD4 or POL2 condensates [1]: no effect |
| O=c1[nH]cc(F)c(=O)[nH]1 [5-FU, fluorouracil] |  |  | effect of antimetabolites on MED1, BRD4 or POL2 condensates [1]: no effect |
| CNC(=O)Nc1ccc2c(c1)CC[C@@]21OC(=O)N(CC(=O)N(Cc2ccc(F)cc2)[C@@H](C)C(F)(F)F)C1=O [A485] | genomic release and consolidation of condensates |  |  |
| CC(C)C[C@H](NC(=O)[C@H](Cc1ccccc1)NC(=O)c1cnccn1)B(O)O [Bortezomib] | global dissolution of condensates |  |  |
| COc1cccc2c1C(=O)c1c(O)c3c(c(O)c1C2=O)C[C@@](O)(C(C)=O)C[C@@H]3O[C@H]1C[C@H](N)[C@H](O)[C@H](C)O1 [Daunorubicin] | global dissolution of condensates | immediately incorporate into MED1 droplets | effect on transcriptional condensates ([1]; listed as daunorubicin): cause condensate dissolution |
| CN(C)C/C=C/C(=O)Nc1ccc(C(=O)Nc2cccc(Nc3ncc(Cl)c(-c4c[nH]c5ccccc45)n3)c2)cc1 [THZ1] | global dissolution of condensates | concentrated preferentially in MED1 droplets | droplet formation of small molecule alone [2]: diffuse fluorescent signal |
| N.N.[Cl][Pt+2][Cl] [Transplatin, transplatin] |  |  | chase out of cisplatin-TR from MED1 droplets by unlabeled compound (MED1 droplets): not able to chase out cisplatin-TR; chase out of cisplatin-TR from MED1 droplets by unlabeled compound (MED1 droplets; listed as isomer of cisplatin): did not exhibit the same behavior |
| N#CC(=C(/N)Sc1ccccc1N)/C(C#N)=C(/N)Sc1ccccc1N [U0216] | eviction of some condensate components |  |  |
| COc1cc(/C=C/C(=O)CC(=O)/C=C/c2ccc(O)c(OC)c2)ccc1O [curcumin] | cause condensate dissolution | immediately incorporate into MED1 droplets |  |
| CTD: RNA polymerase II CTD repeat YSPTSPS peptide |  |  | effect of peptide on ER partitioning / ER/MED1 droplet formation (ER/MED1 droplets): did not have an effect |
| QNPILTSLLQITG [LXXLL peptide] |  |  | incorporation of peptide into MED1 droplets (ER/MED1 droplets; ER/MED1 droplets): incorporated into MED1 droplets; effect of peptide on ER partitioning / ER/MED1 droplet formation (ER/MED1 droplets): decrease in partitioning of ER into the MED1 droplet |
| Texas Red |  | Neither of the two dyes used to visualized drugs were enriched |  |
| QNPILTSLLQITG (also: fluorescent label, type and position not given here, also called fluorescent peptide) [LXXLL peptide (QNPILTSLLQITG; SEQ ID NO: 1)] |  |  | binding result [3]: binds |
